{"source": "patent US20240173353A1", "about": "“UNIVERSAL CHIMERIC ANTIGEN RECEPTOR T-CELL AND APPLICATION THEREOF” (SHANGHAI IASO BIOTECHNOLOGY CO., LTD., priority 2021, published 2024)", "system": "NK cells", "assay": "CD107a release of NK cells activated by K562", "assay_type": "cell-based, human", "protocol": "The inventor used Miltenyi human NK sorting magnetic beads to separate NK cells from human peripheral blood, and used DAKEWE NK medium to culture and expand them in vitro. On Day 8, a population of NK cells with more than 95% having positive CD56 expression could be obtained. These NK cells were taken out and treated with 0 nM, 100 nM and 200 nM dasatinib respectively for 24 hr, and then divided into two groups, one of which was not activated, and the other group was stimulated with MHC-class I molecule-deficient K562 cells for 5 hr. Then, the CD107a release of NK cells were detected in both of them.\nThe inventors isolated NK cells from human PBMCs, and then cultured and differentiated them in NK medium to obtain CD56-positive NK cells with a purity higher than 95%. The exploration of the threshold of NK activation with dasatinib was carried out with seven concentrations in the range of 0-50 nM, namely 0, 10, 20, 25, 30, 40 and 50 nM, and the treatment was carried out overnight. The next day, the cells were resuspended with NK medium and activated with K562. Lymphocyte activator was used as a positive control for activation, and a part of NK cells that were not activated by K562 were also kept. Two replicates were set for each group. anti-CD107a antibody and monensin were added while carrying out activation, and after co-incubation for 6 hr, the CD107a release of CD56-positive NK cells was detected by flow cytometry.\nThe inventors isolated NK cells from human PBMCs, and then cultured and differentiated them in NK medium to obtain CD56-positive NK cells with a purity higher than 95%. Three pretreatments were done respectively (1) absence of dasatinib pretreatment; (2) pretreatment with […] pretreatment with 50 nM dasatinib, and the cells were cultured overnight. The next day, the concentration of dasatinib was reduced, and the concentration was adjusted to 0, 7.5, 12.5, 17.5 and 25 nM respectively. […] Two replicates were set for each group.\nIn order to repeatedly verify that the inhibition of NK cell activation function by dasatinib has an extended effect, the inventors repeated the above experiment. […] After 4 hr of co-incubation, CD107a release from CD56 positive NK cells was detected.\nThe inventors used CD3-negative cells in human PBMCs, which contained more than 5% of CD56-positive NK cells. […] The next day, the cells were resuspended with NK medium and activated with K562. Lymphocyte activator was used as a positive control for activation, and a part of NK cells that were not activated by K562 were also kept. Two replicates were set for each group. anti-CD107a antibody and monensin were added while carrying out activation, and after co-incubation for 6 hr, the CD107a release of CD56-positive NK cells was detected by flow cytometry.\nThe inventors isolated NK cells from human PBMCs, and then cultured and differentiated them in NK medium to obtain CD56-positive NK cells with a purity higher than 95%. […] Two replicates were set for each group."}
{"smiles": "Cc1nc(Nc2ncc(C(=O)Nc3c(C)cccc3Cl)s2)cc(N2CCN(CCO)CC2)n1", "note": "[dasatinib]", "values": [{"measurement": "concentration that effectively inhibits NK cell activation in vitro (minimum)", "setting": "0-50 nM overnight, K562 6 hr", "result": 30, "unit": "nM"}, {"measurement": "concentration enough to inhibit CD107a translocation and activation of NK cells", "setting": "24 hr treatment, K562 5 hr", "result": 100, "unit": "nM"}, {"measurement": "cells still activated", "setting": "NK cells without pretreatment, 7.5 nM dasatinib 4 hr, K562", "result": "about 4.4%"}, {"measurement": "release of CD107a", "setting": "NK cells, 25 nM and 50 nM pretreatment, changed to 12.5, 17.5 and 25 nM, K562", "result": "lower than 1%"}, {"measurement": "release of CD107a", "setting": "NK cells, 25 nM and 50 nM pretreatment, reduced to 7.5 nM, K562", "result": "lower than 1%"}, {"measurement": "CD107a translocation", "setting": "NK cells, 100 nM and 200 nM dasatinib 24 hr, K562 5 hr", "result": 2, "unit": "%"}, {"measurement": "release of CD107a", "setting": "NK cells, pretreatment with three dasatinib concentrations (0, 25, 50 nM), reduced to 0 nM, K562", "result": "above 58%"}, {"measurement": "positive CD107a release", "setting": "NK cells, repeat, 50 nM pretreatment, reduced to 0 nM, K562 4 hr", "result": 39.7, "unit": "%"}, {"measurement": "basal CD107a translocation", "setting": "non-activated NK cells, 100 nM and 200 nM dasatinib 24 hr", "result": 2, "unit": "%"}]}
